In US12357695B2, “Peptides and nanoparticles for intracellular delivery of molecules” (AADIGEN, LLC, priority 2019, dated 2025):
Entries after “also recorded” stand apart in the source; their conditions may differ. Square brackets hold non-standard residues; d marks the D form. Ends that are not written are not given here. Stearyl = stearyl group covalently linked to the N-terminus; Aun = NCCCCCCCCCCC(=O)O; βAla = NCCC(=O)O

Experiments:
293T cells = test: Cellular delivery of pGL4 plasmid DNA expressing Luciferase, luciferase expression at 72 hrs; assay type: cell-based; settings: for reduction of efficiency / luciferase expression in the presence of serum: complexes incubated 3 hrs in 25% serum prior transfection; for reduction of efficiency / luciferase expression in the presence of serum / reduction of efficiency / luciferase expression in heparan sulfate: pGL4 plasmid; for reduction of efficiency / luciferase expression in heparan sulfate: complexes incubated 3 hrs with heparan sulfate prior transfection; for reduction of ADGN-100 efficiency by modification / luciferase expression: 0.15 μg pGL4 plasmid; for reduction of ADGN-100 efficiency by modification: absence of serum or heparan sulfate
Experimental: FIGS. 2A-2C show luciferase expression in 293T cells treated with ADGN-peptide/pGL4 plasmid DNA complexes. 293T cells cultured in 48 well plates were transfected with ADGN-peptide nanoparticles. ADGN-100, ADGN-106, ADGN-100RI, ADGN-106RI, ADGN-100 Stearyl, ADGN-Hydro1, ADGN-Hydro2, ADGN-Hydro3, ADGN-Hydro4, ADGN-Hydro5, and ADGN-Hydro6 containing 0.17 μg pGL4 plasmid DNA were formed in sterile water, diluted in sterile water containing 5% Sucrose. ADGN-peptide nanoparticles were evaluated prior (FIG. 2A) and after filtration with 0.45 μm PES filters (FIG. 2B). FIG. 2C impact of peGylated ADGN-100 on the transfection efficiency. pGL4 luc plasmid (0.15 μg) were associated to ADGN-100 solution containing 5 to 50% of ADGN-100-PEG or to ADGN-100PEG. ADGN/pGL4 plasmid DNA complexes were incubated for 3 hrs in the presence of either 25% serum or heparan sulfate prior transfection. Luciferase expression was monitored 72 hours post transfection and results were reported as RLU (luminescence):mg of protein.
(§1) Complex formation with plasmid DNA. The following protocols were used for the transfection of 2-5 106 Cells or Cells at confluency of about 70-80% cultured in 24 well plates. ADGN peptide/plasmid DNA pGL4 particles were prepared at a 20:1 molar ratio of ADGN-Peptide/pGL4. using (0.2 μg). PGL4 plasmid (0.15 μg) was diluted in 20 μl of sterile water (GIBCO) at room temperature. 10 μl Final Peptide Solution was added to obtain a total volume of 20 μl. The volume was adjusted to 50 μl with sterile water and was mixed gently with vortex 1 min low speed and incubated 30 min at room temperature. Then the volume was made up to 100 μl by adding sterile water containing 5% sucrose, and the solution was mixed gently with vortex 1 min low speed and incubate 5 min at 37° C. and then was proceeded to cell transfection.
Transfection protocol. Protocol is reported for 24 well plate format. Cells were cultured in Dulbecco's Modified Eagle's Medium (DMEM), supplemented with 2 mM glutamine, 1% antibiotics (streptomycin 10,000 μg/mL, penicillin, 10,000 IU/mL) and 10% (w/v) foetal calf serum (FCS), at 37° C. in a humidified atmosphere containing 5% CO2. 24 well plates seeded with 150,000 cells the day prior to transfection were grown to 50-60% confluence and set up to be at about 70% confluences at the time of transfection. Before transfection, cells were washed twice with DMEM. Cells were then overlaid with 0.1 ml of ADGN-peptide/cargo complex solution containing 0.25 μg mRNA, 0.15 μg plasmid DNA or 10-25 nM siRNA, mixed gently, and incubated for 10 min at 37° C. 0.2 mL of fresh DMEM, were added and cells were incubated for 20 min at 37° C. 1 mL of complete DMEM containing 15% FCS were then added in order to reach a final FCS concentration of 10%, without removing the overlay of ADGN-peptide/cargo complexes. Cells were returned to the incubator (37° C., 5% CO2) and 72 hrs post transfection.
ADGN-peptides were evaluated for cellular delivery of pGL4 plasmid DNA expressing Luciferase in 293T cells. Luc pGL4 plasmid (0.15 μg) in sterile water (GIBCO) were mixed with ADGN-100, ADGN-100RI, ADGN-106, ADGN-106RI, ADGN-100 Stearyl, ADGN-100Hydro1, ADGN-100Hydro2, ADGN-100Hydro4, ADGN-100Hydro3, ADGN-100Hydro5 and ADGN-100Hydro6. ADGN-peptide/mRNA complexes were filtered with 0.45 μm PES filter. In order to evaluate the stability of the ADGN/pGL4 plasmid complexes in high serum and cell culture conditions, the complexes were incubated for 3 hrs in the presence of either 25% serum or heparan sulfate prior transfection, then 293T cells were transfected and Luciferase expression was monitored at 72 hrs.

mice = test: In vivo delivery of pGL4 plasmid DNA, intramuscular administration, bioluminescence imaging; settings: IM, 2.5 μg pGL4 plasmid
Experimental: FIGS. 7A-7B show the potency of ADGN-peptide variants for in vivo delivery of Luciferase expressing plasmid pGL4 via intramuscular administration in mice. ADGN-peptide/pGL4 luc particles containing 2.5 μg plasmid DNA were formed in sterile water, and then diluted in 5% sucrose. Mice received IV injection of 25 μl ADGN-peptide/pGL4 complexes. Luciferase expression was monitored by bioluminescence imaging after 12 h, 24 h and 48h (A). FIG. 7B show bioluminescence imaging at 24 hr in control and treated groups.
Stable ADGN-peptides/pGL4.11 DNA were evaluated for in vivo delivery of Luciferase mRNA via intravenous and intramuscular administrations. Animals were treated with single dose of pGL4.11 plasmid DNA of 5 μg. via IV and 2.5 μg via intramuscular administration.
For IM administration, mice received 25 μl (2.5 μg of pGL4 plasmid) IV injection of either ADGN-100/PGL4, ADGN-106/PGL4, ADGN-100RI/PGL4, ADGN-100hydro1/PGL4, ADGN-100hydro6/PGL4, ADGN-100 stearyl/PGL4 or ADGN-100/PGL4 complexes containing 10% or 20% of ADGN-100PEG (2 animals per group). As control, mice from group 3 (2 animals per group) received IV injection of 25 μl of naked PGL4 plasmid (2.5 μg).
Luciferase expression was monitored by bioluminescence. Bioluminescence imaging was performed after 12, 24, 48 and 72 hrs. Mice received an i.p. injection of 150 μg/g luciferin for noninvasive bioluminescence imaging (IVIS Kinetic; PerkinElmer, Waltham, MA, USA).

mice or rat models = test: Summary of cargo delivery to targeted organ (Table 1); assay type: in vivo
From the text: Table 1 lists a summary of cell-penetrating peptides that have been proven successful in delivering various cargo molecules to on or more targeted organ (e.g., by intravenous (IV), intramuscular (IM), or subcutaneous (SQ) administration, or intratraccheal instillation or nebulization (NB)) in mice or rat models.

[1] = DLS particle size and level of aggregation of ADGN-peptide/pGL4 plasmid DNA complexes; assay type: physicochemical; settings: pGL4 5.6 kb plasmid
Experimental: as §1
The ability of the different ADGN-peptides to form stable nanoparticles with DNA pGL4 a 5.6KpB plasmid expression Luciferase was analyzed. The particle sizes and level of aggregation were measured on DLS NanoZS (Malvern Ltd). The mean size and the polydispersity of the ADGN/plasmid DNA complexes were determined at 25° C. for 3 minute per measurement. In order to remove large particles, ADGN/plasmid DNA complexed were filtered using either PES or PVDF 0.45 μm filters. Data are shown in FIG. 10 for a mean of 3 separate experiments.

[2] = cargoes and route (IV, IM, SQ, NB) per peptide as listed in Table 1

Substance | reduction of efficiency / luciferase expression in the presence of serum (293T cells) | reduction of efficiency / luciferase expression in heparan sulfate (293T cells) | luciferase expression (mice) | reduction of ADGN-100 efficiency by modification (293T cells) | Targeted Organ (mice or rat models; [2]) | luciferase expression (293T cells) | ability to form stable nanoparticles/complex with plasmid DNA [1] | increase of luciferase expression in the muscle / efficiency relative to ADGN-100 (mice) [fold] | Targeted Organ (mice or rat models; cargoes and route (IV, IM, SQ, NB) per peptide as listed in Table 1, listed as ADGN-100a)
Ac-GYVS-(G)4-KWRSALWRWRLWRVRSWSR-NH2 (Ac-GYVSGGGGKWRSALWRWRLWRVRSWSR-NH2) [ADGN-100 hydro-2] | do not significantly improved transfection | do not significantly improved transfection | no significant expression | – | – | – | – | – | –
Ac-GYVS-Aun-KWRSALWRWRLWRVRSWSR-NH2 (Ac-GYVS[Aun]KWRSALWRWRLWRVRSWSR-NH2; SMILES CC(=O)NCC(=O)N[C@@H](Cc1ccc(O)cc1)C(=O)N[C@H](C(=O)N[C@@H](CO)C(=O)NCCCCCCCCCCC(=O)N[C@@H](CCCCN)C(=O)N[C@@H](Cc1c[nH]c2ccccc12)C(=O)N[C@@H](CCCNC(=N)N)C(=O)N[C@@H](CO)C(=O)N[C@@H](C)C(=O)N[C@@H](CC(C)C)C(=O)N[C@@H](Cc1c[nH]c2ccccc12)C(=O)N[C@@H](CCCNC(=N)N)C(=O)N[C@@H](Cc1c[nH]c2ccccc12)C(=O)N[C@@H](CCCNC(=N)N)C(=O)N[C@@H](CC(C)C)C(=O)N[C@@H](Cc1c[nH]c2ccccc12)C(=O)N[C@@H](CCCNC(=N)N)C(=O)N[C@H](C(=O)N[C@@H](CCCNC(=N)N)C(=O)N[C@@H](CO)C(=O)N[C@@H](Cc1c[nH]c2ccccc12)C(=O)N[C@@H](CO)C(=O)N[C@@H](CCCNC(=N)N)C(N)=O)C(C)C)C(C)C) [ADGN-100 hydro-6] | – | – | mediated Luciferase expression following IM administration | do not affected | – | – | – | – | –
Stearyl-βA-KWRSALWRWRLWRVRSWSR-NH2 (Stearyl-[βAla]KWRSALWRWRLWRVRSWSR-NH2; not fully specified; printed as Stearyl-βA-KWRSALWRWRLWRVRSWSR-NH2) [ADGN-100 Stearyl] | – | – | – | do not affected | Lung/Liver/; also recorded: Kidney/Pancreas | – | – | – | –
akwllrwlsrwlrwlarwlr ([dA][dK][dW][dL][dL][dR][dW][dL][dS][dR][dW][dL][dR][dW][dL][dA][dR][dW][dL][dR]; also: retro-inverso) [ADGN-106-RI] | – | – | – | – | Liver/Lung | poor luciferase expression | did not improve the potency of ADGN-106 to form stable particle with plasmid | – | –
rswsrvrwlrwrwgasrwk ([dR][dS][dW][dS][dR][dV][dR][dW][dL][dR][dW][dR][dW]G[dA][dS][dR][dW][dK]; also: retro-inverso) [ADGN-100-RI] | 25% | less than 10% | mediated Luciferase expression following IM administration | do not affected | Liver/Lung/; also recorded: Kidney/Spleen | – | did not modifie the ability of the peptide to form stable complex with plasmid DNA | 6 | –
βAKWRSAGWRWRLW RVRSWSR (AKWRSAGWRWRLWRVRSWSR; N-terminal beta-alanine; VARIANT 1 beta-A) [ADGN-100] | 90% | 50% | mediated Luciferase expression following IM administration | – | – | high level of luciferase expression | – | – | Lung/Liver/; also recorded: Kidney/Pancreas
βALWRALWRLWRSLWRLLWKA ([βAla]LWRALWRLWRSLWRLLWKA) [ADGN-106] | – | – | no significant expression | – | Liver/Lung | poor luciferase expression | large size and a the poor stability | – | –
